Results on 20 compounds are retold here after PubChem BioAssay (NCI).

As a reminder, the GI50 is the concentration that inhibits growth by half. For orientation: TGI means the concentration at which net growth stops.

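In this assay, cells in 96-well plates receive the compound at five concentrations for 48 hours. Endpoints are linearly interpolated between the surrounding concentrations. The concentration for 50% growth inhibition is given as GI50. TGI: concentration producing complete growth inhibition.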

The subject of the first experiment is NCI/ADR-RES ovarian. Kind of experiment: DTP human tumour cell line panel, 48 h.
With `CCN1C(=O)c2ccc3c4c(ccc(c24)C1=O)C(=O)N(CCCNCc1ccccc1OC)C3=O`, the GI50 was 1.04 µM and the TGI stood at 5.96 µM.
The matching figures for `O=C(/C=C/c1ccccc1)Nc1ncc(Cc2ccccc2Cl)s1`: 0.325 µM and over 100 µM.
The matching figures for `CN(c1ccc(NC(=O)Nc2c(Cl)cccc2Cl)cc1)c1ccnc(Nc2cccc(CS(C)(=O)=O)c2)n1`: 5.49 µM and over 25 µM.
As to `CCCCCCCCn1ccc2cc(NC(=O)Cn3cc(CN4CCCCCC4)nn3)ccc21`, the GI50 is 1.79 µM and the TGI was determined as 3.56 µM.
Take `COc1ccc2c(c1)C(=O)CCc1cc(OC)c(OC)c(OC)c1-2`: the GI50 is under 0.01 µM.
As for `CC(C)CNc1nc(-c2ccccc2Cl)nc2ccccc12`, the GI50 is 17.8 µM and the TGI amounted to 42.6 µM.
The compound `CN(C)CCOc1ccc([N+](=O)[O-])c2cccnc12` showed a TGI of over 100 µM.
Consider `CCN(CC)CCNC(Cc1ccccc1)c1ccc(OCc2ccccc2)cc1` (stereo unspecified), for which the GI50 is 9.87 µM and the TGI came to 23.2 µM.
In the case of `Cn1c(Cl)c(/C=C2/C(=O)Nc3ccccc32)c2ccccc21`, the concentration for 50% growth inhibition (GI50) was 0.371 µM and the concentration for total growth inhibition (TGI) is 3.57 µM.
The matching figures for `C=C(C)[C@@H]1CC[C@]2(COCCCN)CC[C@]3(C)[C@H](CC[C@@H]4[C@@](C)(CCCNCCCN)[C@H](C(=C)C)CC[C@]43C)[C@@H]12`: 1.88 µM and 3.63 µM.
The like results for `O=C1NC(=S)S/C1=C/c1ccc2c(c1)OCO2` were, in that order, over 100 µM and over 100 µM.
The like results for `Cc1cc(Cl)ccc1OCC(=O)Nc1nc2c(Cl)cccc2s1` were, in that order, 23.8 µM and over 100 µM.
As for `CNC(=O)OCc1c(COC(=O)NC)c(-c2ccc(-c3ccccc3)cc2)n(C)c1C`, the concentration for total growth inhibition (TGI) came to 12.6 µM.
`N/N=C\c1c2ccccc2c(=O)n2c1oc1ccccc12`: the GI50 was 16.9 µM and the total growth inhibition concentration (TGI) was determined as 38.1 µM.

A further experiment concerns OVCAR-8 ovarian. Kind of experiment: DTP human tumour cell line panel, 48 h.
In the case of `C[C@]12CCc3sc(Nc4ccc(OC(F)(F)F)cc4)nc3C1=CC[C@@H]1[C@@H]2CC[C@]2(C)C(=O)CC[C@@H]12`, the GI50 is 3490 nM and the TGI came to 25 µM.
The like results for `CCN1C(=O)c2ccc3c4c(ccc(c24)C1=O)C(=O)N(CCCNCc1ccccc1OC)C3=O` were, in that order, 438 nM and 2.87 µM.
The like results for `O=C(/C=C/c1ccccc1)Nc1ncc(Cc2ccccc2Cl)s1` were, in that order, 509 nM and over 100 µM.
The matching figures for `CN(c1ccc(NC(=O)Nc2c(Cl)cccc2Cl)cc1)c1ccnc(Nc2cccc(CS(C)(=O)=O)c2)n1`: 2310 nM and 6.82 µM.
With `CN(C)C/C=C/C(=O)Nc1ccc(C(=O)N[C@@]2(C)CCC[C@@H](Nc3ncc(Cl)c(-c4c[nH]c5ccccc45)n3)C2)nc1`, the GI50 was 15.4 nM and the total growth inhibition concentration (TGI) stood at 1.19 µM.
The like results for `CCCCCCCCn1ccc2cc(NC(=O)Cn3cc(CN4CCCCCC4)nn3)ccc21` were, in that order, 1870 nM and 3.73 µM.
For the compound `COc1ccc2c(c1)C(=O)CCc1cc(OC)c(OC)c(OC)c1-2`, the GI50 is under 10 nM.
In the case of `CC(C)CNc1nc(-c2ccccc2Cl)nc2ccccc12`, the GI50 was 17200 nM and the concentration for total growth inhibition (TGI) amounted to 38.9 µM.
Turning to `O=C(Nc1cccc(O)c1)C(=O)C1C(=O)NC(=S)NC1=O`, the TGI was over 100 µM.
The same measure, in the same setting: as for `CN(C)CCOc1ccc([N+](=O)[O-])c2cccnc12`, the figure is over 100 µM; as for `O=C1N/C(=C\[N+](=O)[O-])c2ccccc21`, over 100 µM.
For `CCN(CC)CCNC(Cc1ccccc1)c1ccc(OCc2ccccc2)cc1` (stereo unspecified), the GI50 is 10700 nM and the TGI was found to be 24.4 µM.
The matching figures for `Cn1c(Cl)c(/C=C2/C(=O)Nc3ccccc32)c2ccccc21`: 1700 nM and over 37.1 µM.
With `C=C(C)[C@@H]1CC[C@]2(COCCCN)CC[C@]3(C)[C@H](CC[C@@H]4[C@@](C)(CCCNCCCN)[C@H](C(=C)C)CC[C@]43C)[C@@H]12`, the GI50 was 1910 nM and the total growth inhibition concentration (TGI) was 3.61 µM.
The compound `CCOC1C(Br)Cn2c(=O)c3cc4ccccc4cc3c(=O)n2C1C` (stereo unspecified) showed a TGI of over 100 µM.
On to `O=C1NC(=S)S/C1=C/c1ccc2c(c1)OCO2`, for which the GI50 was over 100000 nM and the TGI is over 100 µM.
Consider `Cc1cc(Cl)ccc1OCC(=O)Nc1nc2c(Cl)cccc2s1`, for which the GI50 is 15900 nM and the TGI amounted to 29.4 µM.
On to `CNC(=O)OCc1c(COC(=O)NC)c(-c2ccc(-c3ccccc3)cc2)n(C)c1C`, for which the TGI worked out at 10.4 µM.
On to `N/N=C\c1c2ccccc2c(=O)n2c1oc1ccccc12`, for which the GI50 is 19400 nM and the TGI worked out at 49.4 µM.
For `COc1ccc2nc3cc(Cl)ccc3c(Sc3ccc([N+](=O)[O-])cc3C)c2c1`, the TGI is over 100 µM.

The subject of the next experiment is HS 578T breast. Kind of experiment: DTP human tumour cell line panel, 48 h.
For `C[C@]12CCc3sc(Nc4ccc(OC(F)(F)F)cc4)nc3C1=CC[C@@H]1[C@@H]2CC[C@]2(C)C(=O)CC[C@@H]12`, the GI50 is 1480 nM and the total growth inhibition concentration (TGI) is 5.22 µM.
The like results for `CCN1C(=O)c2ccc3c4c(ccc(c24)C1=O)C(=O)N(CCCNCc1ccccc1OC)C3=O` were, in that order, 2210 nM and 8.35 µM.
Take `O=C(/C=C/c1ccccc1)Nc1ncc(Cc2ccccc2Cl)s1`: the concentration for 50% growth inhibition (GI50) was 302 nM and the concentration for total growth inhibition (TGI) is over 24.7 µM.
The matching figures for `CN(c1ccc(NC(=O)Nc2c(Cl)cccc2Cl)cc1)c1ccnc(Nc2cccc(CS(C)(=O)=O)c2)n1`: 4350 nM and over 17.6 µM.
Take `CN(C)C/C=C/C(=O)Nc1ccc(C(=O)N[C@@]2(C)CCC[C@@H](Nc3ncc(Cl)c(-c4c[nH]c5ccccc45)n3)C2)nc1`: the GI50 was 22 nM and the TGI stood at 0.0877 µM.
The matching figures for `CCCCCCCCn1ccc2cc(NC(=O)Cn3cc(CN4CCCCCC4)nn3)ccc21`: 1910 nM and 4.16 µM.
In turn, `COc1ccc2c(c1)C(=O)CCc1cc(OC)c(OC)c(OC)c1-2` gave a total growth inhibition concentration (TGI) of 0.0576 µM.
